According to BindingDB's records for doi:10.1021/acsmedchemlett.8b00054 (Shandong University, 2018):

Legend:
[1] = test system: HIV1 RES056 reverse transcriptase K103N/Y181C double mutant (virus infecting MT4 cells); assay: Inhibition of HIV1 RES056 reverse transcriptase K103N/Y181C double mutant infected in human MT4 cells assessed as protection against virus-induced cytotoxicity by MTT assay
[2] = test system: wild-type HIV1 3B reverse transcriptase (virus infecting MT4 cells); assay: Inhibition of wild-type HIV1 3B reverse transcriptase infected in human MT4 cells assessed as protection against virus-induced cytotoxicity by MTT assay
[3] = Inhibition of HIV1 reverse transcriptase E138K mutant infected in human MT4 cells assessed as protection against virus-induced cytotoxicity by MTT assay
[4] = Inhibition of HIV1 reverse transcriptase K103N mutant infected in human MT4 cells assessed as protection against virus-induced cytotoxicity by MTT assay
[5] = Inhibition of HIV1 reverse transcriptase Y181C mutant infected in human MT4 cells assessed as protection against virus-induced cytotoxicity by MTT assay
[6] = Inhibition of HIV1 reverse transcriptase Y188L mutant infected in human MT4 cells assessed as protection against virus-induced cytotoxicity by MTT assay
[7] = Inhibition of HIV1 reverse transcriptase L100I mutant infected in human MT4 cells assessed as protection against virus-induced cytotoxicity by MTT assay
[8] = Inhibition of HIV1 reverse transcriptase F227L/V106A double mutant infected in human MT4 cells assessed as protection against virus-induced cytotoxicity by MTT assay

Structure (SMILES)	EC50 [1] [nM]	EC50 [2] [nM]	also measured
Cc1ccnc2c1NC(=O)c1cccnc1N2C1CC1 [BI-RG-587]	> 15000	124	–
Cc1cc(C#N)cc(C)c1Oc1nc(NC2CCN(Cc3cn(S(C)(=O)=O)cn3)CC2)nc2ccsc12	2700	5.7	EC50 [3]: 13 nM; EC50 [4]: 4.5 nM
Cc1cc(C#N)cc(C)c1Oc1nc(NC2CCN(Cc3ccc(C(N)=O)cc3)CC2)nc2ccn(S(=O)(=O)c3ccccc3)c12	2290	17	–
Cc1cc(C#N)cc(C)c1Oc1nc(NC2CCN(Cc3ccc(C(N)=O)cc3)CC2)nc2ccn(COCc3ccccc3)c12	567	36	–
Cc1cc(C#N)cc(C)c1Oc1nc(NC2CCN(Cc3ccco3)CC2)nc2ccsc12	> 272000	3.6	EC50 [3]: 8.8 nM
Cc1cc(C#N)cc(C)c1Oc1nc(NC2CCN(Cc3ccc(S(N)(=O)=O)cc3)CC2)nc2cc[nH]c12	85	2.4	EC50 [5]: 4.8 nM; EC50 [3]: 4 nM; EC50 [6]: 7.2 nM; EC50 [7]: 4.2 nM; EC50 [4]: 1 nM; EC50 [8]: 18 nM
Cc1cc(C#N)cc(C)c1Oc1nc(NC2CCN(Cc3c[nH]cn3)CC2)nc2ccsc12	1170	5.5	EC50 [3]: 12 nM; EC50 [4]: 6 nM
Cc1cc(C#N)cc(C)c1Oc1nc(NC2CCN(Cc3ccc(S(N)(=O)=O)cc3)CC2)nc2ccn(S(=O)(=O)c3ccccc3)c12	110	8.9	–
Cc1cc(C#Cc2ccccn2)cc(C)c1Oc1nc(NC2CCN(Cc3ccc(S(N)(=O)=O)cc3)CC2)nc2ccsc12	888	9	–
Cc1cc(C#N)cc(C)c1Oc1nc(Nc2ccc(C#N)cc2)nc(N)c1Br	34	4	–
Cc1cc(C#N)cc(C)c1Oc1nc(NC2CCN(Cc3ccc(S(N)(=O)=O)cc3)CC2)nc2ccn(COCc3ccccc3)c12	484	9.5	–
Cc1cc(C#N)cc(C)c1Oc1nc(NC2CCN(Cc3ccc(S(C)(=O)=O)cc3)CC2)nc2cc[nH]c12	116	5.9	–
Cc1cn([C@H]2C[C@H](N=[N+]=[N-])[C@@H](CO)O2)c(=O)[nH]c1=O [1-((2R,4S,5S)-4-Azido-5-hydroxymethyl-tetrahydro-furan-2-yl)-5-methyl-1H-pyrimidine-2,4-dione]	17	7	–
Cc1cc(C#N)cc(C)c1Nc1nc(NC2CCN(Cc3ccc(S(N)(=O)=O)cc3)CC2)nc2ccsc12	31	1.4	–
Cc1cc(C#Cc2cccnc2)cc(C)c1Oc1nc(NC2CCN(Cc3ccc(S(N)(=O)=O)cc3)CC2)nc2ccsc12	153	41	–
Cc1cc(C#N)cc(C)c1Oc1nc(NC2CCN(Cc3n[nH]c(=O)n3C)CC2)nc2ccsc12	17100	14	–
Cc1cc(/C=C/C#N)cc(C)c1Nc1nc(NC2CCN(Cc3ccc(S(N)(=O)=O)cc3)CC2)nc2ccsc12	5	1.2	–
Cc1cc(C#Cc2ccncc2)cc(C)c1Oc1nc(NC2CCN(Cc3ccc(S(N)(=O)=O)cc3)CC2)nc2ccsc12	223	34	–
Cc1cc(C#N)cc(C)c1Oc1nc(NC2CCN(Cc3ccc(C(N)=O)cc3)CC2)nc2cc[nH]c12	113	5.7	–
Cc1cc(C#N)cc(C)c1Oc1nc(NC2CCN(Cc3ccc(N4CCCC4)cc3)CC2)nc2ccsc12	> 4360	33	–
Cc1cc(C#N)cc(C)c1Oc1nc(NC2CCN(Cc3ccc(S(C)(=O)=O)cc3)CC2)nc2ccn(COCc3ccccc3)c12	547	26	–
Cc1cc(C#N)cc(C)c1Oc1nc(NC2CCN(Cc3ccc(S(C)(=O)=O)cc3)CC2)nc2ccn(S(=O)(=O)c3ccccc3)c12	187	31	–
Cc1cc(C#N)cc(C)c1Oc1nc(NC2CCN(Cc3cc(=O)[nH]c(=O)[nH]3)CC2)nc2ccsc12	8970	7.2	EC50 [3]: 7 nM; EC50 [4]: 6.1 nM
